Laboratory results taken from patent publication US11253589B2, “Modulation of the immune response” (priority 2007, dated 2022).

Tests used:
C57BL/6 mice = test: EAE induced by immunization with MOG35-55 in CFA; type: in vivo, mouse
[1] = compared with toxic effects reported for TCDD; cited from earlier work
AHR = biological target: T1, AHR (Homo sapiens, UniProt P35869); conditions: cited from earlier work
T1 sequence (P35869 11-848): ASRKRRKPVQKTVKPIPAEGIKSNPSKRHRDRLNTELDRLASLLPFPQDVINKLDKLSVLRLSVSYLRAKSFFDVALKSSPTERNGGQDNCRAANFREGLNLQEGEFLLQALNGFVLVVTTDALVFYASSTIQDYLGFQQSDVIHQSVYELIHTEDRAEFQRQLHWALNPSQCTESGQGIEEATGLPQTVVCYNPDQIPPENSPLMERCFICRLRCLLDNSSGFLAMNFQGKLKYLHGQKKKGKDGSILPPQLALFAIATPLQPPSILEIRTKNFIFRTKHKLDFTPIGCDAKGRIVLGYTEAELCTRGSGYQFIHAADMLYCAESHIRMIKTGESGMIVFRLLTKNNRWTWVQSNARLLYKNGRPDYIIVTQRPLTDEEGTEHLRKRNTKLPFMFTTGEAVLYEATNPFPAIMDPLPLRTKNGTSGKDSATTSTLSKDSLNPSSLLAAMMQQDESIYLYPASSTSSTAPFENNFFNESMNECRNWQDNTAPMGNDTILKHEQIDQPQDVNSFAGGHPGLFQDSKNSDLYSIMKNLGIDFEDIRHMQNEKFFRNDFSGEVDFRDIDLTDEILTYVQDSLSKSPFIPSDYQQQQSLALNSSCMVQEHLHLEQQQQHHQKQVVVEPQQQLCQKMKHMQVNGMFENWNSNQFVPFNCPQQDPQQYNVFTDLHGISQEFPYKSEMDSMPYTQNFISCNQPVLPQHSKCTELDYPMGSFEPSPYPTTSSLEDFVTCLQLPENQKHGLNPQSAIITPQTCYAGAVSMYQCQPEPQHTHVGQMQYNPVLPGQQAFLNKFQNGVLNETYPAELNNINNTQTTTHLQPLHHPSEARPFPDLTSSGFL

CD4+Foxp3:GFP- T cells = test: In vitro conversion of CD4+Foxp3:GFP- T cells into Treg; type: cell-based, mouse; conditions: resveratrol 50 μM
Experimental: CD4+ T cells were purified from Foxp3gfp knock in mice using anti-CD4 beads (Miltenyi, Auburn, Calif., USA) and sorted (FACSAria™ cell sorter, BD Biosciences) into naive CD4^+ Foxp3:GFP^− or CD4^+ Foxp3:GFP T cells. CD4^+ Foxp3:GFP^− T cells were stimulated with plate bound 1 μg/ml of anti-CD3 (145-2C11, eBioscience) and 2 μg/ml of anti-CD28 (37.51, eBioscience) for 5 days, supplemented with recombinant IL-2 (50 U/ml) at day 2 and 4, and analyzed by FACS at day 5 for their differentiation into […]. TGFβ1 (2.5 ng/ml) was used as a positive control.
To establish if TCDD triggered the conversion of CD4^+Foxp3^− T cells into new Foxp3^+ Treg cells, FACS sorted CD4^+Foxp3:GFP− T cells were activated in vitro with antibodies to CD3 and CD28 in the presence of TCDD, and the generation of CD4^+Foxp3:GFP^+ Treg was followed by FACS. TGFb1 was used as a positive control.

CD4+Foxp3:GFP+ Treg = test: Treg suppressive activity assay; type: cell-based, mouse; conditions: resveratrol treated cells
Experimental: Cells were cultured in serum-free X-VIVO 20™ media (BioWhittaker, Walkersville, Md., USA) for 72 hours. During the last 16 hours, cells were pulsed with 1 μCi of [^3H]thymidine (PerkinElmer, Waltham, Mass., USA) followed by harvesting on glass fiber filters and analysis of incorporated [^3H]thymidine in a beta-counter (1450 Microbeta, Trilux, PerkinElmer). Alternatively, culture supernatants were collected […] activation and the cytokine concentration was determined by ELISA using antibodies for IFN-γ, IL-17, IL-4, IL-10 from BD Biosciences and antibodies to TGF-β from R&D Systems. For suppression assays, MACS purified CD4^+CD25^− T cells from naïve C57BL/6 mice (1-5×10^4 cells/well) were stimulated with antibodies to CD3 and C57BL/6 irradiated spleen cells (0.3-1.5×10^4 cells/well) for 3 days in the presence of different ratios of CD4^+ GFP^+ retrovirus-transduced T cells.
To investigate the active suppression of MOG35-55-specific Teff by Treg, Foxp3^gpf knock in mice were immunized with MOG35-55/CFA, treated daily with intreaperitoneal ITE ([…]) and the recall response to MOG35-55 and a mitogenic antibody to CD3 antibody was studied on FACS-sorted CD4^+ T cells and CD4^+ FoxP3:GFP− Teff. […] This suppressed response to MOG35-55 was lost upon removal of the CD4^+FoxP3:GFP^+ Treg (FIG. 26). To further analyze the MOG35-55-specific suppressive activity of the CD4^+FoxP3:GFP^+ Treg, they were cocultured at different ratios and assayed for the suppression of MOG35-55 or anti-CD3-triggered proliferation of CD4^+FoxP3:GFP− Teff form 2D2 mice, which harbor a TCR specific for MOG35-55.

[2] = system: CD4+ CD62L+CD45RO- T cells; test: In vitro differentiation of human naive CD4+ T cells, suppression and real time PCR; type: cell-based; conditions: 5 days activation with antibodies to CD3 and CD28; TGFb1 2.5 ng/ml or TCDD alone
Experimental: To investigate the potential of AHR targeting for the induction of human Treg we activated purified naïve CD4^+ CD62L^+CD45RO^− T cells for healthy donors for 5 days with antibodies to CD3 and CD28 in the presence of TCDD 100 nM or TGFb1 2.5 ng/ml or both.
To study the functionality of the putative human Treg induced in the presence of TCDD we studied their suppressive activity of CD4^+ CD25^High and CD4^+CD25^Low T cells following 5 days of activation in the of TCDD or TGFb1 2.5 ng/ml or both.
To investigate the mechanism mediating the suppressive activity of the TCDD-induced Treg, we analyzed them by real time PCR for the expression of several genes that have been previously linked to the suppressive function of Treg. […] Accordingly, IL-10-specific blocking antibodies could interfere with the suppressive activity of Treg induced with TCDD, but not the of those induced with TGFb1 and TCDD (FIG. 42). Thus, TCDD-induced CD4^+CD25^High T cells are FoxP3^− regulatory cells whose suppressive activity is mediated, at least partially, via IL-10, resembling the phenotype of type 1 Treg (Roncarolo et al., Immunol Rev. 212, 28 (2006); Roncarolo and Gregori, Eur J Immunol. 38, 925 (2008)).

With `O=Cc1c2c(cc3c1=Nc1ccccc1-3)=Nc1ccccc1-2` [FICZ, 6-formylindolo[3,2-b]carbazole] the EAE development (C57BL/6 mice; AHR-ligand loaded nanoparticles, 45 femtomoles weekly starting at day 0) was “worsened the disease”.
For `NCCc1c[nH]c2ccccc12` [TA, tryptamine], the toxic effects [1] is listed as “do not display the toxic effects”, the AHR affinity (AHR) is listed as “high affinity AHR ligands” and the EAE suppression (C57BL/6 mice; TA combined with the monoamine oxidase inhibitor Tranylcypromine) is listed as “effectively suppresses EAE”.
With `Oc1ccc(C=Cc2cc(O)cc(O)c2)cc1` [resveratrol] the “induction of Treg by TGFβ1 and TCDD” value (CD4+Foxp3:GFP- T cells) was “interfered with the induction of Treg” and the “suppressive activity of Treg” value (CD4+Foxp3:GFP+ Treg) was “Decreases in the suppressive activity”.
In the case of “TGFb1: TGFβ1, positive control for Treg induction”, the “induction of suppressive (regulatory) T cells” value [2] was “did not result in the induction of suppressive T cells”.
